According to patent US20150017673A1, “COMPOSITIONS AND METHODS FOR DRUG-SENSITIZATION OR INHIBITION OF A CANCER CELL” (priority 2012, published 2015):

Columns and labels:
[1] = test system: CHOP-sensitive CRL2631 cells; test: Prevention of the emergence of CHOP resistance; assay type: cell-based, human; conditions: one week CHOP+rifabutin, half (0.5×) and full (1×) doses of CHOP
Experimental: The ability of rifabutin to prevent the emergence of CHOP-resistance was determined by treating CHOP-sensitive CRL2631 cells with either CHOP alone or CHOP+rifabutin for one week. Following treatment, the cells were grown in the absence of CHOP, then their sensitivity to CHOP was assayed by retreatment with CHOP, followed by counting of viable cells. […] A 1×CHOP dose in this experiment corresponds to final concentrations of the following components: 0.83 μM 4-hydroxycyclophosphamide [4HC, a pre-activated form of cyclophosphamide], 0.057 μM doxorubicin, 0.01 μM vincristine, and 0.186 μM prednisone.

[2] = test system: primary human fibroblasts; conditions: with and without 2 uM Dox

`CO[C@H]1/C=C/O[C@@]2(C)Oc3c(C)c(O)c4c(c3C2=O)C2=NC3(CCN(CC(C)C)CC3)NC2=C(NC(=O)/C(C)=C\C=C\[C@H](C)[C@H](O)[C@@H](C)[C@@H](O)[C@@H](C)[C@H](OC(C)=O)[C@@H]1C)C4=O` [Rifabutin, rifabutin] was tested, and the “emergence of CHOP-resistant cells” value [1] was “significantly repress the emergence of CHOP-resistant cells” and the “comparative cytotoxicity to normal cells” value [2] was “not toxic to normal cells”.
